Results published in ChEMBL document CHEMBL5236661, “A new selective inhibitor for IMP-1 metallo-β-lactamase, 3Z,5E-octa-3,5-diene-1,3,4-tricarboxylic acid-3,4-anhydride” (Bioorg Med Chem, 2023).
The source made the active and inactive calls. The calls are words filed in the database; no cut-off is given here.

Columns and labels:
Pseudomonas aeruginosa [1] = test: Antibacterial activity against Pseudomonas aeruginosa KB367 expressing IMP-1 assessed as inhibition of bacterial growth at 1 ug in presence of meropenem incubated overnight by paper disk method; assay type: functional; conditions: dose 1.0 µg
Pseudomonas aeruginosa [2] = test: Antibacterial activity against Pseudomonas aeruginosa KB367 expressing IMP-1 assessed as inhibition of bacterial growth at 0.01 ug in absence of meropenem incubated overnight by paper disk method; assay type: functional, organism-based; conditions: dose 0.01 µg
Escherichia coli [3] = test: Antibacterial activity against Escherichia coli KB366 expressing IMP-1 assessed as inhibition of bacterial growth at 1 ug in absence of meropenem incubated overnight by paper disk method; assay type: functional, organism-based; conditions: dose 1.0 µg
Pseudomonas aeruginosa [4] = test: Antibacterial activity against Pseudomonas aeruginosa KB367 expressing IMP-1 assessed as inhibition of bacterial growth at 1 ug in absence of meropenem incubated overnight by paper disk method; assay type: functional, organism-based; conditions: dose 1.0 µg
Pseudomonas aeruginosa [5] = test: Antibacterial activity against Pseudomonas aeruginosa KB367 expressing IMP-1 assessed as inhibition of bacterial growth at 0.01 ug in presence of meropenem incubated overnight by paper disk method; assay type: functional, organism-based; conditions: dose 0.01 µg
Pseudomonas aeruginosa [6] = test: Antibacterial activity against Pseudomonas aeruginosa KB367 expressing IMP-1 assessed as inhibition of bacterial growth at 3 ug in absence of meropenem incubated overnight by paper disk method; assay type: functional, organism-based; conditions: dose 3.0 µg
Pseudomonas aeruginosa [7] = test: Antibacterial activity against Pseudomonas aeruginosa KB367 expressing IMP-1 assessed as inhibition of bacterial growth at 0.03 ug in absence of meropenem incubated overnight by paper disk method; assay type: functional, organism-based; conditions: dose 0.03 µg
Escherichia coli [8] = test: Antibacterial activity against Escherichia coli KB366 expressing IMP-1 assessed as inhibition of bacterial growth at 0.01 ug in absence of meropenem incubated overnight by paper disk method; assay type: functional, organism-based; conditions: dose 0.01 µg
Escherichia coli [9] = test: Antibacterial activity against Escherichia coli KB366 expressing IMP-1 assessed as inhibition of bacterial growth at 3 ug in absence of meropenem incubated overnight by paper disk method; assay type: functional, organism-based; conditions: dose 3.0 µg
Pseudomonas aeruginosa [10] = test: Antibacterial activity against Pseudomonas aeruginosa KB367 expressing IMP-1 assessed as inhibition of bacterial growth at 0.3 ug in absence of meropenem incubated overnight by paper disk method; assay type: functional, organism-based; conditions: dose 0.3 µg
Pseudomonas aeruginosa [11] = test: Antibacterial activity against Pseudomonas aeruginosa KB367 expressing IMP-1 assessed as inhibition of bacterial growth at 30 ug in presence of meropenem incubated overnight by paper disk method; assay type: functional; conditions: read-out: IZ
Escherichia coli [12] = test: Antibacterial activity against Escherichia coli KB366 expressing IMP-1 assessed as inhibition of bacterial growth at 30 ug in presence of meropenem incubated overnight by paper disk method; assay type: functional; conditions: read-out: IZ
Escherichia coli [13] = test: Antibacterial activity against Escherichia coli KB366 expressing IMP-1 assessed as inhibition of bacterial growth at 0.3 ug in presence of meropenem incubated overnight by paper disk method; assay type: functional; conditions: read-out: IZ
Escherichia coli [14] = test: Antibacterial activity against Escherichia coli KB366 expressing IMP-1 assessed as inhibition of bacterial growth at 100 ug in presence of meropenem incubated overnight by paper disk method; assay type: functional; conditions: read-out: IZ
Escherichia coli [15] = test: Antibacterial activity against Escherichia coli KB366 expressing IMP-1 assessed as inhibition of bacterial growth at 3 ug in presence of meropenem incubated overnight by paper disk method; assay type: functional; conditions: read-out: IZ
Pseudomonas aeruginosa [16] = test: Antibacterial activity against Pseudomonas aeruginosa KB367 expressing IMP-1 assessed as inhibition of bacterial growth at 3 ug in presence of meropenem incubated overnight by paper disk method; assay type: functional; conditions: read-out: IZ
Pseudomonas aeruginosa [17] = test: Antibacterial activity against Pseudomonas aeruginosa KB367 expressing IMP-1 assessed as inhibition of bacterial growth at 0.1 ug in presence of meropenem incubated overnight by paper disk method; assay type: functional, organism-based; conditions: dose 0.1 µg
Pseudomonas aeruginosa [18] = test: Antibacterial activity against Pseudomonas aeruginosa KB367 expressing IMP-1 assessed as inhibition of bacterial growth at 30 ug in absence of meropenem incubated overnight by paper disk method; assay type: functional, organism-based; conditions: dose 30.0 µg
[19] = Inhibition of bacterial Metallo-beta-lactamase IMP-1 using nitrocefin as substrate pre-incubated for 15 mins followed by substrate addition by microplate reader; set-up: species or system Bacteria
Escherichia coli [20] = test: Antibacterial activity against Escherichia coli KB366 expressing IMP-1 assessed as inhibition of bacterial growth at 0.03 ug in absence of meropenem incubated overnight by paper disk method; assay type: functional, organism-based; conditions: dose 0.03 µg
Escherichia coli [21] = test: Antibacterial activity against Escherichia coli KB366 expressing IMP-1 assessed as inhibition of bacterial growth at 30 ug in absence of meropenem incubated overnight by paper disk method; assay type: functional, organism-based; conditions: dose 30.0 µg
Escherichia coli [22] = test: Antibacterial activity against Escherichia coli KB366 expressing IMP-1 assessed as inhibition of bacterial growth at 0.03 ug in presence of meropenem incubated overnight by paper disk method; assay type: functional; conditions: read-out: IZ
Escherichia coli [23] = test: Antibacterial activity against Escherichia coli KB366 expressing IMP-1 assessed as inhibition of bacterial growth at 10 ug in absence of meropenem incubated overnight by paper disk method; assay type: functional, organism-based; conditions: dose 10.0 µg
Pseudomonas aeruginosa [24] = test: Antibacterial activity against Pseudomonas aeruginosa KB367 expressing IMP-1 assessed as inhibition of bacterial growth at 100 ug in presence of meropenem incubated overnight by paper disk method; assay type: functional; conditions: read-out: IZ
Pseudomonas aeruginosa [25] = test: Antibacterial activity against Pseudomonas aeruginosa KB367 expressing IMP-1 assessed as inhibition of bacterial growth at 10 ug in absence of meropenem incubated overnight by paper disk method; assay type: functional, organism-based; conditions: dose 10.0 µg
Escherichia coli [26] = test: Antibacterial activity against Escherichia coli KB366 expressing IMP-1 assessed as inhibition of bacterial growth at 1 ug in presence of meropenem incubated overnight by paper disk method; assay type: functional; conditions: read-out: IZ
Escherichia coli [27] = test: Antibacterial activity against Escherichia coli KB366 expressing IMP-1 assessed as inhibition of bacterial growth at 0.3 ug in absence of meropenem incubated overnight by paper disk method; assay type: functional, organism-based; conditions: dose 0.3 µg
Escherichia coli [28] = test: Antibacterial activity against Escherichia coli KB366 expressing IMP-1 assessed as inhibition of bacterial growth at 10 ug in presence of meropenem incubated overnight by paper disk method; assay type: functional; conditions: read-out: IZ
Escherichia coli [29] = test: Antibacterial activity against Escherichia coli KB366 expressing IMP-1 assessed as inhibition of bacterial growth at 0.1 ug in presence of meropenem incubated overnight by paper disk method; assay type: functional; conditions: read-out: IZ
Escherichia coli [30] = test: Antibacterial activity against Escherichia coli KB366 expressing IMP-1 assessed as inhibition of bacterial growth at 0.1 ug in absence of meropenem incubated overnight by paper disk method; assay type: functional, organism-based; conditions: dose 0.1 µg
Pseudomonas aeruginosa [31] = test: Antibacterial activity against Pseudomonas aeruginosa KB367 expressing IMP-1 assessed as inhibition of bacterial growth at 0.3 ug in presence of meropenem incubated overnight by paper disk method; assay type: functional, organism-based; conditions: dose 0.3 µg
Pseudomonas aeruginosa [32] = test: Antibacterial activity against Pseudomonas aeruginosa KB367 expressing IMP-1 assessed as inhibition of bacterial growth at 10 ug in presence of meropenem incubated overnight by paper disk method; assay type: functional; conditions: read-out: IZ
Escherichia coli [33] = test: Antibacterial activity against Escherichia coli KB366 expressing IMP-1 assessed as inhibition of bacterial growth at 0.01 ug in presence of meropenem incubated overnight by paper disk method; assay type: functional; conditions: dose 0.01 µg
Pseudomonas aeruginosa [34] = test: Antibacterial activity against Pseudomonas aeruginosa KB367 expressing IMP-1 assessed as inhibition of bacterial growth at 100 ug in absence of meropenem incubated overnight by paper disk method; assay type: functional, organism-based; conditions: dose 100.0 µg
Escherichia coli [35] = test: Antibacterial activity against Escherichia coli KB366 expressing IMP-1 assessed as inhibition of bacterial growth at 100 ug in absence of meropenem incubated overnight by paper disk method; assay type: functional, organism-based; conditions: dose 100.0 µg
Pseudomonas aeruginosa [36] = test: Antibacterial activity against Pseudomonas aeruginosa KB367 expressing IMP-1 assessed as inhibition of bacterial growth at 0.1 ug in absence of meropenem incubated overnight by paper disk method; assay type: functional, organism-based; conditions: dose 0.1 µg
Pseudomonas aeruginosa [37] = test: Antibacterial activity against Pseudomonas aeruginosa KB367 expressing IMP-1 assessed as inhibition of bacterial growth at 0.03 ug in presence of meropenem incubated overnight by paper disk method; assay type: functional, organism-based; conditions: dose 0.03 µg

## CC/C=C/C(C(=O)[O-])=C(\CCC)C(=O)[O-].[Na+].[Na+]
Pseudomonas aeruginosa [1]
  inhibition zone (IZ): inactive
Pseudomonas aeruginosa [2]
  inhibition zone (IZ): inactive
Escherichia coli [3]
  inhibition zone (IZ): inactive
Pseudomonas aeruginosa [4]
  inhibition zone (IZ): inactive
Pseudomonas aeruginosa [5]
  inhibition zone (IZ): inactive
Pseudomonas aeruginosa [6]
  inhibition zone (IZ): inactive
Pseudomonas aeruginosa [7]
  inhibition zone (IZ): inactive
Escherichia coli [8]
  inhibition zone (IZ): inactive
Escherichia coli [9]
  inhibition zone (IZ): inactive
Pseudomonas aeruginosa [10]
  inhibition zone (IZ): inactive
Pseudomonas aeruginosa [11]
  zone of inhibition at 30 µg/disc: 19 mm
Escherichia coli [12]
  zone of inhibition at 30 µg/disc: 28 mm
Escherichia coli [13]
  zone of inhibition at 0.3 µg/disc: 16 mm
Escherichia coli [14]
  zone of inhibition at 100 µg/disc: 30 mm
Escherichia coli [15]
  zone of inhibition at 3 µg/disc: 21 mm
Pseudomonas aeruginosa [16]
  zone of inhibition at 3 µg/disc: 7 mm
Pseudomonas aeruginosa [17]
  inhibition zone (IZ): inactive
Pseudomonas aeruginosa [18]
  inhibition zone (IZ): inactive
[19]
  IC50: 2.2 µg/mL
Escherichia coli [20]
  inhibition zone (IZ): inactive
Escherichia coli [21]
  inhibition zone (IZ): inactive
Escherichia coli [22]
  zone of inhibition at 0.03 µg/disc: 11 mm
Escherichia coli [23]
  inhibition zone (IZ): inactive
Pseudomonas aeruginosa [24]
  zone of inhibition at 100 µg/disc: 23 mm
Pseudomonas aeruginosa [25]
  inhibition zone (IZ): inactive
Escherichia coli [26]
  zone of inhibition at 1 µg/disc: 19 mm
Escherichia coli [27]
  inhibition zone (IZ): inactive
Escherichia coli [28]
  zone of inhibition at 10 µg/disc: 26 mm
Escherichia coli [29]
  zone of inhibition at 0.1 µg/disc: 13 mm
Escherichia coli [30]
  inhibition zone (IZ): inactive
Pseudomonas aeruginosa [31]
  inhibition zone (IZ): inactive
Pseudomonas aeruginosa [32]
  zone of inhibition at 10 µg/disc: 14 mm
Escherichia coli [33]
  inhibition zone (IZ): inactive
Pseudomonas aeruginosa [34]
  inhibition zone (IZ): inactive
Escherichia coli [35]
  inhibition zone (IZ): inactive
Pseudomonas aeruginosa [36]
  inhibition zone (IZ): inactive
Pseudomonas aeruginosa [37]
  inhibition zone (IZ): inactive
